Measurements reported in paper PMC9794710, “Introduction of benzyloxy pharmacophore into aryl/heteroaryl chalcone motifs as a new class of monoamine oxidase B inhibitors” (Scientific Reports, 2022).
Read-outs that look alike come from different tables or passages of the source.

How the values were obtained:
hMAO-B [1] = biological target: T1, hMAO-B (Homo sapiens, UniProt P27338); assay: hMAO-B inhibitory activity assay (recombinant enzyme, benzylamine substrate); details: for SI (selectivity index for hMAO-B as compared with hMAO-A): IC50 of hMAO-A/IC50 of hMAO-B; for remaining activity at 10 µM: read-out: Residual activity at 10 µM (%) hMAO-B;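 on all read-outs here: benzylamine used at 0.3 mM as hMAO-B substrate, compounds first screened at 10 µM, hMAO-A assayed with 0.06 mM kynuramine for the selectivity ratio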
T1 sequence (P27338 1-520): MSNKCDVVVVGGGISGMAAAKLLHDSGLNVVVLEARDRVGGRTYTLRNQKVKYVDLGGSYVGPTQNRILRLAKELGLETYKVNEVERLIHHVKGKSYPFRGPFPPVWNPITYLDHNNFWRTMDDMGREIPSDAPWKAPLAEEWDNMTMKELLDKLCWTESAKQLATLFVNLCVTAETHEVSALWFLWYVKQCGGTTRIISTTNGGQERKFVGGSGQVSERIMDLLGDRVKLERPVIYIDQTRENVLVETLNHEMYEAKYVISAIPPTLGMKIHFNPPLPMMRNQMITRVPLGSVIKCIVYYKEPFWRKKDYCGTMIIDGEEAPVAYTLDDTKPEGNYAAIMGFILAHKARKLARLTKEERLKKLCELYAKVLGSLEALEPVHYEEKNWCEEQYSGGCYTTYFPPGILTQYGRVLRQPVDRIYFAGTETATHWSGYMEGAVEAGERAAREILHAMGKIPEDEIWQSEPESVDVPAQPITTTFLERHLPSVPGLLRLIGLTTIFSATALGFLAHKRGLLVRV

hMAO-A = biological target: T2, hMAO-A (Homo sapiens, UniProt P21397); assay: hMAO-A inhibitory activity assay (recombinant enzyme, kynuramine substrate); assay type: biochemical; details: kynuramine 0.06 mM; for remaining activity at 10 µM: 10 µM compound, read-out: Residual activity at 10 µM (%) hMAO-A
T2 construct: purchased Sigma-Aldrich (St. Louis, MO, USA)
T2 sequence (P21397 1-527): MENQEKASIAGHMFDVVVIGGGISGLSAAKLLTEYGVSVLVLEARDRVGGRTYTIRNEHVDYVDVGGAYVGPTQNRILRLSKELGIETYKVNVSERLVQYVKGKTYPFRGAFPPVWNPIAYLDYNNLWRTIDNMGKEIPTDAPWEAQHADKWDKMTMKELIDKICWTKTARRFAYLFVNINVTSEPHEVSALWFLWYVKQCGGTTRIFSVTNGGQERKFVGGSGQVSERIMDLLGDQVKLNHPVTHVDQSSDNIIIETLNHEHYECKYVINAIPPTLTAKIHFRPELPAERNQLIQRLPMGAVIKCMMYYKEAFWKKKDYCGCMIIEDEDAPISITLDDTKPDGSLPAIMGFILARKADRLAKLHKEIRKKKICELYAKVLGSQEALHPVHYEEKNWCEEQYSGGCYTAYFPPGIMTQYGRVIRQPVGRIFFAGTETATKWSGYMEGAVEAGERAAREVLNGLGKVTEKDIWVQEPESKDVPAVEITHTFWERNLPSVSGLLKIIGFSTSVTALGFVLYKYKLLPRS

[2] = Parallel artificial membrane permeation assay (PAMPA) for BBB permeation; assay type: in vitro ADME; details: for Papp: pH 7.4, read-out: Experimental Pe
hMAO-B [3] = biological target: T1, hMAO-B; assay: Reversibility analysis of hMAO-B inhibition by dialysis; assay type: biochemical; parameters: purchased Sigma-Aldrich (St. Louis, MO, USA); details: for Reversibility of hMAO-B inhibition: dialysis; for Relative activity of hMAO-B, undialyzed (AU) / Relative activity of hMAO-B, dialyzed (AD): preincubation 30 min at ~2 × IC50 (B10 0.134, B15 0.240, lazabemide 0.220, pargyline 0.280 μM); for Relative activity of hMAO-B, dialyzed (AD): after dialysis
hMAO-B [4] = biological target: T1, hMAO-B; assay: Enzyme kinetic study of hMAO-B inhibition (Lineweaver–Burk and secondary plots); assay type: biochemical; parameters: purchased Sigma-Aldrich (St. Louis, MO, USA); details: for Type of hMAO-B inhibition: Lineweaver–Burk plots; for Ki: secondary plots, five substrate and three inhibitor concentrations
hMAO-B [5] = biological target: T1, hMAO-B
[6] = parameters: method as in PMID 26587996; details: cited from earlier work

Row | Structure (SMILES) | IC50 (hMAO-B [1]) [µM] | SI (selectivity index for hMAO-B as compared with hMAO-A) (hMAO-B [1]) | remaining activity at 10 µM (hMAO-B [1]) [%] | remaining activity at 10 µM (hMAO-A) [%] | IC50 (hMAO-A) [µM] | Pe value [2] | Prediction (CNS permeation) [2] | Papp [2] [×10⁻⁶ cm/s] | Reversibility of hMAO-B inhibition (hMAO-B [3]) | Relative activity of hMAO-B, undialyzed (AU) (hMAO-B [3]) [%] | Relative activity of hMAO-B, dialyzed (AD) (hMAO-B [3]) [%] | Type of hMAO-B inhibition (hMAO-B [4]) | Ki (hMAO-B [4]) [µM] | SI (selectivity index for hMAO-B as compared with hMAO-A) (hMAO-B [5]) | bioavailability [6]
1 | CS(=O)(=O)c1ccc(C(=O)/C=C/c2ccc(OCc3ccccc3)cc2)cc1 [Compound B5] | 0.224 ± 0.082 | > 178.651 | 0 | 89.2 ± 4.47 | > 40 | – | – | – | – | – | – | – | – | – | –
2 | O=C(/C=C/c1ccc(OCc2ccccc2)cc1)c1ccc(Br)s1 [Compound B9] | 0.236 ± 0.017 | 101.551 | 0 | 69.1 ± 1.54 | 24 ± 1.44 | – | – | – | – | – | – | – | – | – | –
3 | O=C(/C=C/c1ccc(OCc2ccccc2)cc1)c1cccs1 [Compound B10] | 0.067 ± 0.005 | 504.791 | 0 | 76.7 ± 3.22 | 33.8 ± 6.89 | higher than 4.0 × 10^–6 cm/s | CNS + (Pe (10^−6 cm/s) > 4.00: CNS + (high permeation)) | 4.93 ± 0.13 | reversible inhibitors of hMAO-B | 44.29 | 77.53 | competitive inhibitors of hMAO-B | 0.03 ± 0.001 | – | –
4 | O=C(/C=C/c1ccccc1OCc1ccccc1)c1ccc(C(F)(F)F)cc1 [Compound B12] | 37.6 ± 1.88 | > 1.065 | 75.4 ± 3.6 | 86.7 ± 2.68 | > 40 | – | – | – | – | – | – | – | – | – | –
5 | O=C(/C=C/c1ccc(OCc2ccccc2)cc1)c1ccc2c(c1)OCO2 [Compound B2] | 0.626 ± 0.296 | – | 23.6 ± 0.96 | 53.1 ± 1.58 | 13.7 ± 1.53 | – | – | – | – | – | – | – | – | 21.933 | –
6 | CCOc1ccc(C(=O)/C=C/c2ccccc2OCc2ccccc2)cc1 [Compound B14] | 11.3 ± 0.331 | > 3.525 | 51.9 ± 1.31 | 91.2 ± 6.2 | > 40 | – | – | – | – | – | – | – | – | – | –
7 | C#CCN(C)[C@H](C)Cc1ccccc1 [Selegiline, reference compound] | – | – | – | – | – | – | CNS + (Pe (10^−6 cm/s) > 4.00: CNS + (high permeation)) | – | – | – | – | – | – | – | –
8 | O=C(/C=C/c1ccccc1OCc1ccccc1)c1cccs1 [Compound B11] | 5.78 ± 2.39 | > 6.915 | 41.2 ± 0.12 | 81.3 ± 2.92 | > 40 | – | – | – | – | – | – | – | – | – | –
9 | CSc1ccc(C(=O)/C=C/c2ccccc2OCc2ccccc2)cc1 [Compound B6] | 6.55 ± 1.34 | > 6.107 | 41.3 ± 4.9 | 92 ± 2.93 | > 40 | – | – | – | – | – | – | – | – | – | –
10 | CCOc1ccc(C(=O)/C=C/c2ccc(OCc3ccccc3)cc2)cc1 [Compound B15] | 0.12 ± 0.01 | 287.600 | 0 | 75.9 ± 3.1 | 34.5 ± 3.54 | higher than 4.0 × 10^–6 cm/s | CNS + (Pe (10^−6 cm/s) > 4.00: CNS + (high permeation)) | 4.09 ± 0.24 | reversible inhibitors of hMAO-B | 41.68 | 78.78 | competitive inhibitors of hMAO-B | 0.033 ± 0.001 | – | –
11 | CS(=O)(=O)c1ccc(C(=O)/C=C/c2ccccc2OCc2ccccc2)cc1 [Compound B4] | 0.233 ± 0.11 | 125.915 | 16.2 ± 6.49 | 78.2 ± 4.32 | 29.4 ± 2.71 | – | – | – | – | – | – | – | – | – | –
12 | CSc1ccc(C(=O)/C=C/c2ccc(OCc3ccccc3)cc2)cc1 [Compound B7] | 0.149 ± 0.006 | 84.544 | 0 | 58.4 ± 4.48 | 12.6 ± 0.898 | – | – | – | – | – | – | – | – | – | –
13 | C[C@H](NCc1ccc(OCc2cccc(F)c2)cc1)C(N)=O [Safinamide] | – | – | – | – | – | – | – | – | – | – | – | – | – | – | about 95%
14 | O=C(/C=C/c1ccccc1OCc1ccccc1)c1ccc(Br)s1 [Compound B8] | 17.9 ± 0.268 | > 2.237 | 64.4 ± 1.5 | 92.45 ± 0.49 | > 40 | – | – | – | – | – | – | – | – | – | –
15 | O=C(/C=C/c1ccc(OCc2ccccc2)cc1)c1ccc2c(c1)OCCO2 [Compound B3] | 0.261 ± 0.016 | 54.663 | 0 | 58.3 ± 0.84 | 14.3 ± 0.203 | – | – | – | – | – | – | – | – | – | –
16 | O=C(/C=C/c1ccccc1OCc1ccccc1)c1ccc2c(c1)OCO2 [Compound B1] | 1.44 ± 0.149 | 18.677 | 35.5 ± 6.05 | 82.6 ± 5.03 | 26.9 ± 4.16 | – | – | – | – | – | – | – | – | – | –
17 | O=C(/C=C/c1ccc(OCc2ccccc2)cc1)c1ccc(C(F)(F)F)cc1 [Compound B13] | 0.255 ± 0.016 | > 156.617 | 1.39 ± 3.27 | 99.1 ± 1.24 | > 40 | – | – | – | – | – | – | – | – | – | –
